Reference: ChEMBL document CHEMBL1134720, “Antitumour benzothiazoles. Part 15: The synthesis and physico-chemical properties of 2-(4-aminophenyl)benzothiazole sulfamate salt derivatives” (Bioorg Med Chem Lett, 2001)

Tests used:
MCF7 = assay: Antitumor activity expressed as inhibitory concentration against human breast cell line MCF-7(ER+ve); format: functional, cell-based
[1] = Log P (Cyclohexane:buffer pH 7.4); format: physicochemical
[2] = Log P (Octanol:buffer pH 7.4); format: physicochemical
[3] = Delta Log P was determined; format: physicochemical; details: octanol/water
[4] = Antitumor activity expressed as inhibitory concentration against human breast cell line MDA 468(ER-ve); format: functional, cell-based; details: MDA-MB-468
[5] = Solubility of compound at pH 7.1; format: physicochemical; details: buffer
[6] = Solubility of compound at pH 5.4; format: physicochemical; details: buffer
[7] = Solubility of compound at pH 6; format: physicochemical; details: buffer
[8] = Solubility of compound at pH 4.2; format: physicochemical; details: buffer
[9] = Solubility of compound at pH 7.5; format: physicochemical; details: buffer
[10] = Solubility of compound at pH 9; format: physicochemical; details: buffer

Row | Structure (SMILES) | IC50 (MCF7) [nM] | logD [1] | logD [2] | delta Log P [3] | IC50 [4] [nM] | solubility [5] [µg/mL] | solubility [6] [µg/mL] | solubility [7] [µg/mL] | solubility [8] [µg/mL] | solubility [9] [µg/mL] | solubility [10] [µg/mL]
1 | Nc1ccc(-c2nc3ccccc3s2)cc1I | – | > 2.7 | > 3.3 | – | – | – | – | – | – | – | –
2 | Cc1cc(-c2nc3ccccc3s2)ccc1N | – | 2.51 | 3.96 | – | – | – | – | – | – | – | –
3 | O=S(=O)(O)Nc1ccc(-c2nc3ccccc3s2)cc1 | 3400 | – | 3.4 | – | 7500 | – | – | – | – | – | –
4 | Nc1ccc(-c2nc3ccccc3s2)cc1Br | – | > 2.8 | > 3.3 | – | – | – | – | – | – | – | –
5 | Nc1ccc(-c2nc3ccccc3s2)cc1Cl | – | > 3.2 | > 3.3 | – | – | – | – | – | – | – | –

Results, then the molecule that gave them:

Row | IC50 (MCF7) [nM] | logD [1] | logD [2] | delta Log P [3] | IC50 [4] [nM] | solubility [5] [µg/mL] | solubility [6] [µg/mL] | solubility [7] [µg/mL] | solubility [8] [µg/mL] | solubility [9] [µg/mL] | solubility [10] [µg/mL] | Structure (SMILES)
6 | 490 | < 3 | 0.6 | > 2.4 | 720 | – | – | – | – | – | – | Cc1cc(-c2nc3ccccc3s2)ccc1NS(=O)(=O)[O-].[Na+]
7 | 1800 | 1.9 | 1.8 | – | 1900 | – | – | – | – | – | – | O=S(=O)([O-])Nc1ccc(-c2nc3ccccc3s2)cc1I.[Na+]
8 | 420 | < 2.19 | 0.02 | > 2.17 | 9000 | 300 | 300 | 400 | 500 | 300 | 700 | O=S(=O)([O-])Nc1ccc(-c2nc3ccccc3s2)cc1Cl.[Na+]
